Experimental findings from patent US20150291598A1 (NOVARTIS AG, priority 2012, published 2015) are described below.

pEC50: −log10 of the molar value. Where two headings read alike, the source gives them in different places. Where only a bound is given, the exact number is not on record here.

The subject of this assay is P. falciparum (NF54 or 3D7 strain). The assay is described as follows: Assay for P. falciparum proliferation in infected human blood cells (SYBR Green). The format is cell-based, Plasmodium falciparum. Conditions: for EC50: NF54 or 3D7 infected human erythrocytes, 72 hours, read-out: EC50 (nM), inhibitory efficacy in delaying P. falciparum proliferation in infected human blood cells. Here is the method: Assay for P. falciparum Proliferation in Infected Human Blood Cells
Compounds of the invention can be assayed to measure their capacity to inhibit proliferation of P. falciparum parasitemia in infected red blood cells. This parasite proliferation assay measures the increase in parasite DNA content using a DNA intercalating dye, SYBR Green® (INVITROGEN®) which has a high affinity for double stranded DNA.
NF54 or 3D7 P. falciparum strain is grown in complete culturing media until parasitemia reaches 3% to 8% with O+ human erythrocytes. […] 20 μl of screening media is dispensed into 384 well assay plates. 50 nl of compounds of the invention (in DMSO), including antimalarial controls (mefloquine, pyrimethamine and artemisinin), are then transferred into the assay plates, as well as DMSO alone to serve as a negative control for inhibition. Then 30 μl of a suspension of a NF54 or 3D7 P. falciparum infected erythrocytes in screening media is dispensed into the assay plates such that the final hematocrit is 2.5% with a final parasitemia of 0.3%. The plates are placed in a 37° C. incubator for 72 hours in a low oxygen environment containing 93% N2, 4% CO2, and 3% O2 gas mixture. 10 μl of lysis buffer (saponin, triton-X, EDTA) containing a 10× solution of SYBR Green I® in RPMI media is dispensed into the plates. The plates are lidded and kept at room temperature overnight for the lysis of the infected red blood cells. The fluorescence intensity is measured (excitation […], emission 530 nm) using the Envision™ system (Perkin Elmer).

Setting [1] is: Plasmodium falciparum, Erythrocyte, 72 h.

As for “4-{6-[N-methyl(4-cyanobenzene)amido]imidazo[1,2-a]pyrazin-3-yl}benzamide [Compound 495]”, the EC50 stood at 405 nM.

In the case of `CC(N)C(=O)Nc1ccc(-c2cnc3cnc(C(=O)N(C)c4ccc(C#N)cc4)cn23)cc1` (stereo in doubt) [Compound 271, 3-{4-[(2S)-2-aminopropanamido]phenyl}-N-(4-cyanophenyl)-N-methylimidazo[1,2-a]pyrazine-6-carboxamide], the EC50 under setting [1] turned out to be 207 nM.

For `CN(C(=O)c1cn2c(-c3ccc(NC(=O)C(N)C4CC4)cc3)cnc2cn1)c1ccc(C#N)cc1` (stereo in doubt) [Compound 292, 3-{4-[(2S)-2-amino-2-cyclopropylacetamido]phenyl}-N-(4-cyanophenyl)-N-methylimidazo[1,2-a]pyrazine-6-carboxamide], under setting [1], the EC50 came out at 304 nM. Same read-out and setting: then `CN(C)CCCOc1ccc(-c2cnc3cnc(C(=O)N(C)c4ccc(C#N)cc4)cn23)cn1` [Compound 1, N-(4-cyanophenyl)-3-(6-(3-(dimethylamino)propoxy)pyridin-3-yl)-N-methylimidazo[1,2-a]pyrazine-6-carboxamide], with 477 nM. As to `CN(Cc1cn2c(-c3ccc(-c4ccn[nH]4)cc3)cnc2cn1)c1ccc(C#N)cc1` [Compound 2, 4-(((3-(4-(1H-pyrazol-5-yl)phenyl)imidazo[1,2-a]pyrazin-6-yl)methyl)(methyl)amino)benzonitrile], the EC50 under setting [1] amounted to 66 nM. For the molecule `CN(Cc1cn2c(-c3ccc(-c4ccn[nH]4)cc3)cnc2cn1)c1ccc(F)cc1` [Compound 3, N-((3-(4-(1H-pyrazol-5-yl)phenyl)imidazo[1,2-a]pyrazin-6-yl)methyl)-4-fluoro-N-methylaniline], the EC50 under setting [1] was determined as 58 nM. The same measure, in the same setting: then `CN(Cc1cn2c(-c3ccc(Cl)cc3)cnc2cn1)c1ccc(C#N)cc1` [Compound 4, 4-(((3-(4-chlorophenyl)imidazo[1,2-a]pyrazin-6-yl)methyl)(methyl)amino)benzonitrile], with 185 nM; and `CN(Cc1cn2c(-c3ccc(-c4ccn[nH]4)cc3)cnc2cn1)c1ccc(Cl)cc1` [Compound 5, N-((3-(4-(1H-pyrazol-5-yl)phenyl)imidazo[1,2-a]pyrazin-6-yl)methyl)-4-chloro-N-methylaniline], with 238 nM. As to `CN(C(=O)c1cn2c(-c3ccc(C(F)(F)F)cc3)cnc2cn1)c1ncc(Cl)cc1F` [Compound 6, N-(5-chloro-3-fluoropyridin-2-yl)-N-methyl-3-(4-(trifluoromethyl)phenyl)imidazo[1,2-a]pyrazine-6-carboxamide], the EC50 under setting [1] was found to be 619 nM.

In the case of `CS(=O)(=O)c1ccc2c(c1)CCN2C(=O)c1cn2c(-c3ccc(C(F)(F)F)cc3)cnc2cn1` [Compound 7, 5-methanesulfonyl-1-({3-[4-(trifluoromethyl)phenyl]imidazo[1,2-a]pyrazin-6-yl}carbonyl)-2,3-dihydro-1H-indole], the EC50 under setting [1] was > 10000 nM.

With `CN(Cc1cn2c(-c3ccc4c(cnn4C)c3)cnc2cn1)c1ccc(F)cc1` [Compound 8, 4-fluoro-N-methyl-N-((3-(1-methyl-1H-indazol-5-yl)imidazo[1,2-a]pyrazin-6-yl)methyl)aniline], the EC50 under setting [1] was 21 nM. The same measure, in the same setting: then `CN(Cc1cn2c(-c3ccc(-n4cccn4)cc3)cnc2cn1)c1ccc(Cl)cc1` [Compound 9, N-((3-(4-(1H-pyrazol-1-yl)phenyl)imidazo[1,2-a]pyrazin-6-yl)methyl)-4-chloro-N-methylaniline], with 218 nM. Turning to `CN(Cc1cn2c(-c3ccc(-n4cccn4)cc3)cnc2cn1)c1ccc(F)cc1` [Compound 10], the EC50 (Plasmodium falciparum, 3D7|NF54, Erythrocyte, in Homo sapiens, 72 h) stood at 189 nM. In the case of `CN(C(=O)c1cn2c(-c3ccc(C(F)(F)F)cc3)cnc2cn1)c1ccc2c(c1)nnn2C` [Compound 12, N-methyl-N-(1-methyl-1H-benzo[d][1,2,3]triazol-5-yl)-3-(4-(trifluoromethyl)phenyl)imidazo[1,2-a]pyrazine-6-carboxamide], under setting [1], the EC50 is 4850 nM.

`CN(C(=O)c1cn2c(-c3ccc(-c4ccn[nH]4)cc3)cnc2cn1)c1ccc(Cl)cc1` [Compound 13, N-(4-chlorophenyl)-N-methyl-3-[4-(1H-pyrazol-5-yl)phenyl]imidazo[1,2-a]pyrazine-6-carboxamide]: the EC50 under setting [1] came to 41 nM.

As for `CN(C(=O)c1cn2c(-c3ccc(C(F)(F)F)cc3)cnc2cn1)c1nc2ccccc2s1` [Compound 14, N-(1,3-benzothiazol-2-yl)-N-methyl-3-[4-(trifluoromethyl)phenyl]imidazo[1,2-a]pyrazine-6-carboxamide], under setting [1], the EC50 came to 9580 nM.

In the case of `CN(C(=O)c1cn2c(-c3ccc(-c4nnc(N)o4)cc3)cnc2cn1)c1ccc(Cl)cc1` [Compound 15, -[4-(5-amino-1,3,4-oxadiazol-2-yl)phenyl]-N-(4-chlorophenyl)-N-methylimidazo[1,2-a]pyrazine-6-carboxamide], the EC50 under setting [1] was determined as 29 nM. For `COc1cccnc1N(C)C(=O)c1cn2c(-c3ccc(C(F)(F)F)cc3)cnc2cn1` [Compound 16, N-(3-methoxypyridin-2-yl)-N-methyl-3-[4-(trifluoromethyl)phenyl]imidazo[1,2-a]pyrazine-6-carboxamide], the EC50 under setting [1] worked out at 454 nM. As to `CN(C(=O)c1cn2c(-c3ccc(Cl)cc3)cnc2cn1)c1ccc(S(C)(=O)=O)cc1` [Compound 17, 3-(4-chlorophenyl)-N-(4-methanesulfonylphenyl)-N-methylimidazo[1,2-a]pyrazine-6-carboxamide], the EC50 under setting [1] is 602 nM. The same measure, in the same setting: then `CN(Cc1cn2c(-c3ccc(Cl)cc3)cnc2cn1)c1ccc(F)cc1` [Compound 18, N-{[3-(4-chlorophenyl)imidazo[1,2-a]pyrazin-6-yl]methyl}-4-fluoro-N-methylaniline], with 78 nM; and `Cc1ccc(-c2cnc3cnc(C(=O)N(C)c4ccc(C#N)cc4)cn23)nc1` [Compound 19, N-(4-cyanophenyl)-N-methyl-3-(5-methylpyridin-2-yl)imidazo[1,2-a]pyrazine-6-carboxamide], with 280 nM; and `CN(C(=O)c1cn2c(-c3ccc(Cl)cc3Cl)cnc2cn1)c1ccc(C#N)cc1` [Compound 20, N-(4-cyanophenyl)-3-(2,4-dichlorophenyl)-N-methylimidazo[1,2-a]pyrazine-6-carboxamide], with > 10000 nM. On to `CN(Cc1cn2c(-c3ccc(OC(F)F)cc3)cnc2cn1)c1ccc(F)cc1` [Compound 21, N-({3-[4-(difluoromethoxy)phenyl]imidazo[1,2-a]pyrazin-6-yl}methyl)-4-fluoro-N-methylaniline], for which the EC50 under setting [1] was 46 nM. Take `CN(C(=O)c1cn2c(-c3ccc(C(N)=O)cc3)cnc2cn1)c1ccc(F)c(F)c1` [Compound 22, 3-(4-carbamoylphenyl)-N-(3,4-difluorophenyl)-N-methylimidazo[1,2-a]pyrazine-6-carboxamide]: the EC50 under setting [1] worked out at 74 nM. Consider `CN(C(=O)c1cn2c(-c3ccc(C(F)(F)F)cc3)cnc2cn1)c1ccc(F)cc1F` [Compound 23, N-(2,4-difluorophenyl)-N-methyl-3-[4-(trifluoromethyl)phenyl]imidazo[1,2-a]pyrazine-6-carboxamide], for which, under setting [1], the EC50 was determined as 99 nM. Take `CN(C(=O)c1ccc(N2CCOCC2)cc1)c1cn2c(-c3ccc(C(F)(F)F)cc3)cnc2cn1` [Compound 24, N-methyl-4-(morpholin-4-yl)-N-{3-[4-(trifluoromethyl)phenyl]imidazo[1,2-a]pyrazin-6-yl}benzamide]: under setting [1], the EC50 was determined as 1120 nM. `CN(Cc1cn2c(-c3ccc(-c4nnc(N)s4)cc3)cnc2cn1)c1ccc(C#N)cc1` [Compound 25, 4-[({3-[4-(5-amino-1,3,4-thiadiazol-2-yl)phenyl]imidazo[1,2-a]pyrazin-6-yl}methyl)(methyl)amino]benzonitrile]: the EC50 under setting [1] came out at 6 nM. Further, the pEC50 (Plasmodium falciparum, Erythrocyte, infected human red blood cells, read-out: EC50, P. falciparum Proliferation Assay) is > 7.30. With `Cc1cc(Cl)ccc1-c1cnc2cnc(C(=O)N(C)c3ccc(C#N)cc3)cn12` [Compound 26, 3-(4-chloro-2-methylphenyl)-N-(4-cyanophenyl)-N-methylimidazo[1,2-a]pyrazine-6-carboxamide], the EC50 under setting [1] turned out to be 8330 nM. For `CN(C(=O)c1cn2c(-c3ccnc(Cl)c3)cnc2cn1)c1ccc(C#N)cc1` [Compound 27, 3-(2-chloropyridin-4-yl)-N-(4-cyanophenyl)-N-methylimidazo[1,2-a]pyrazine-6-carboxamide], the EC50 under setting [1] was > 10000 nM. Same read-out and setting: for `CN(Cc1cn2c(-c3ccc(-c4nnc(N)s4)cc3)cnc2cn1)c1ccc(Cl)nc1` [Compound 28, -({3-[4-(5-amino-1,3,4-thiadiazol-2-yl)phenyl]imidazo[1,2-a]pyrazin-6-yl}methyl)-6-chloro-N-methylpyridin-3-amine] the value was 13 nM; for `CN(C(=O)c1cn2c(-c3ncc(F)cc3F)cnc2cn1)c1ccc(C#N)cc1` [Compound 29, N-(4-cyanophenyl)-3-(3,5-difluoropyridin-2-yl)-N-methylimidazo[1,2-a]pyrazine-6-carboxamide], 2040 nM.
